Source: patent US5854388A, “Angiotensin IV peptides and receptor” (Washington State University Research Foundation, priority 1994, dated 1998)
Where two headings read alike, the source gives them in different places.

Tests used:
[1] = Stability of angiotensin peptides in binding buffer (reverse phase HPLC); format: physicochemical; details: 4 h at 37° C.
Description: Binding studies were carried out in a buffer (below) containing an extensive cocktail of inhibitors that was designed to minimize metabolism of both the receptor and the test ligand, i.e., the buffer contained 5 mM EDTA, 0.2% BSA, […] Bestatin, 50 μM Plummer's inhibitor, and 100 μM PMSF.

[2] = in vivo; cited from earlier work
[3] = target: T1, AT4 receptor (Bos taurus, UniProt F1N1Q8); assay: 125I-AIV binding and competition, bovine adrenal cortical membranes
T1 sequence (F1N1Q8 1-1022): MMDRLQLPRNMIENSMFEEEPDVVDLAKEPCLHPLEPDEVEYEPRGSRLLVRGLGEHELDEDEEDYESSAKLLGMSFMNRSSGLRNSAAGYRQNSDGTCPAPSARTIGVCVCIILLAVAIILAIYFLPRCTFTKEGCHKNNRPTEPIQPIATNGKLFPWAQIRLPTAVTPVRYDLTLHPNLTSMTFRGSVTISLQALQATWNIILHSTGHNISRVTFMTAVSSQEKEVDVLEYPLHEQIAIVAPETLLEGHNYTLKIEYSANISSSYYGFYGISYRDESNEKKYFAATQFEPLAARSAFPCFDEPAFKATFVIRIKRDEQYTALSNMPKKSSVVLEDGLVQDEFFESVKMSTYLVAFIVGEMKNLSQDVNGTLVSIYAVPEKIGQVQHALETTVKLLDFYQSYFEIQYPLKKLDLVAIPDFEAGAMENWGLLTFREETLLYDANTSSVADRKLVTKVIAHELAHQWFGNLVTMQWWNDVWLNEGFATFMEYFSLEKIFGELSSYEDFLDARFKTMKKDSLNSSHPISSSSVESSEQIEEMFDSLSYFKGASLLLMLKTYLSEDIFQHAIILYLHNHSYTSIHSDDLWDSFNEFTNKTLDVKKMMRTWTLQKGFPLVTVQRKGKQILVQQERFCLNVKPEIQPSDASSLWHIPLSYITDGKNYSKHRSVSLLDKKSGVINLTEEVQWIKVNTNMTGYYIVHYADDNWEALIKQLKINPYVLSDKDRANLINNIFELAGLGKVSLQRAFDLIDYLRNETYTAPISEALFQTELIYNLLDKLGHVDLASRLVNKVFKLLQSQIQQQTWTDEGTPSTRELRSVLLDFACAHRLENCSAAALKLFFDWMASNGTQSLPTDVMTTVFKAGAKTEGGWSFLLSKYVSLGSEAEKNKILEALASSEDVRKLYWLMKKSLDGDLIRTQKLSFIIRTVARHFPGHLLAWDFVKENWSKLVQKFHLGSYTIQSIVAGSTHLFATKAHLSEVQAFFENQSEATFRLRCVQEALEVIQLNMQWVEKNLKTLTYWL

[4] = target: T2, AT1 receptor (AII receptor) (Bos taurus, UniProt P25104); format: binding, bovine; details: for Bmax: equilibrium binding
T2 construct: from tissue; host or cells: bovine adrenal cortex membranes
T2 sequence (P25104 1-359): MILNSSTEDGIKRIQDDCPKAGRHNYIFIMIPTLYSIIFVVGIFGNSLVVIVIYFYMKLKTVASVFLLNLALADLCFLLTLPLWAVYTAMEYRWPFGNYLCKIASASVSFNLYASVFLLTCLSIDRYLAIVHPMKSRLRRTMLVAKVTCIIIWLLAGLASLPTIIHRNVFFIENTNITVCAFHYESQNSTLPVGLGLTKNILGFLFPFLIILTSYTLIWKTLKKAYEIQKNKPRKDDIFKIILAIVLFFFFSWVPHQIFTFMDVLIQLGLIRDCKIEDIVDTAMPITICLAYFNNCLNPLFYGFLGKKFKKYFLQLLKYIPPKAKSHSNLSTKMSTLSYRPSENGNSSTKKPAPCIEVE

[5] = target: T3, AT4 receptor (Oryctolagus cuniculus, UniProt G1SFU4); assay: 125I-AIV binding and competition, rabbit heart P2 membranes; details: competition of 0.5 nM 125I-AIV, 120 min, 37° C.
T3 sequence (G1SFU4 1-1025): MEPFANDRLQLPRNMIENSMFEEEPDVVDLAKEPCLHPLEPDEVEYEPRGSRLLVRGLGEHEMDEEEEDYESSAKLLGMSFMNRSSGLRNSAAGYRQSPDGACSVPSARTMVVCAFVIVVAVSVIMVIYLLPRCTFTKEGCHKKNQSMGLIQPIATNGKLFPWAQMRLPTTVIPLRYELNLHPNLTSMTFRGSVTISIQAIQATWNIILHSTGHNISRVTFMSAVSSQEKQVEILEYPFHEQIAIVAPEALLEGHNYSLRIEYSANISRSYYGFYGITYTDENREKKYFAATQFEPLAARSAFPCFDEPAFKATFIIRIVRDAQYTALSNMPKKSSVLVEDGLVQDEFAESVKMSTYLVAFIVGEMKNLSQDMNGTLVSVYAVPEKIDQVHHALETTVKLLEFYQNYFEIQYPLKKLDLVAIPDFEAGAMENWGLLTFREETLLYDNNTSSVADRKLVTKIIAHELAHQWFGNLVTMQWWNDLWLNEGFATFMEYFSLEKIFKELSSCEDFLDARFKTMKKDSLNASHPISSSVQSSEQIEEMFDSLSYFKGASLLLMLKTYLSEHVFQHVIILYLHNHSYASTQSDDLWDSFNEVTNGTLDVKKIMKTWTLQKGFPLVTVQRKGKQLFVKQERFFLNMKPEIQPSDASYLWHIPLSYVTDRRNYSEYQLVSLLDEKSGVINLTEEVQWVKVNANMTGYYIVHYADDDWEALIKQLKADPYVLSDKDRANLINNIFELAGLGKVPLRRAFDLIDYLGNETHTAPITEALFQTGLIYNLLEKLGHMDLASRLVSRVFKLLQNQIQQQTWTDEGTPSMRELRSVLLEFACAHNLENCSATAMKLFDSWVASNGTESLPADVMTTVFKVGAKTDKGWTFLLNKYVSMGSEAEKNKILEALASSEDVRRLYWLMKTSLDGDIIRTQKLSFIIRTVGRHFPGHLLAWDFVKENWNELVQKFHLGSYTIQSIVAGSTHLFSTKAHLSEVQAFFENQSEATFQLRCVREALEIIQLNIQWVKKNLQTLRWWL

[6] = target: T1, AT4 receptor; assay: 125I-AIV binding and competition, coronary venular endothelial cell (CVEC) membranes; parameters: species or system bovine; details: for Ki: read-out: Ki
[7] = target: T4, AT4 receptor (Cavia porcellus, UniProt H0VNM7); assay: 125I-AIV binding and competition, guinea pig hippocampus membranes; details: competition of 0.6 nM 125I-AIV
T4 sequence (H0VNM7 1-1025): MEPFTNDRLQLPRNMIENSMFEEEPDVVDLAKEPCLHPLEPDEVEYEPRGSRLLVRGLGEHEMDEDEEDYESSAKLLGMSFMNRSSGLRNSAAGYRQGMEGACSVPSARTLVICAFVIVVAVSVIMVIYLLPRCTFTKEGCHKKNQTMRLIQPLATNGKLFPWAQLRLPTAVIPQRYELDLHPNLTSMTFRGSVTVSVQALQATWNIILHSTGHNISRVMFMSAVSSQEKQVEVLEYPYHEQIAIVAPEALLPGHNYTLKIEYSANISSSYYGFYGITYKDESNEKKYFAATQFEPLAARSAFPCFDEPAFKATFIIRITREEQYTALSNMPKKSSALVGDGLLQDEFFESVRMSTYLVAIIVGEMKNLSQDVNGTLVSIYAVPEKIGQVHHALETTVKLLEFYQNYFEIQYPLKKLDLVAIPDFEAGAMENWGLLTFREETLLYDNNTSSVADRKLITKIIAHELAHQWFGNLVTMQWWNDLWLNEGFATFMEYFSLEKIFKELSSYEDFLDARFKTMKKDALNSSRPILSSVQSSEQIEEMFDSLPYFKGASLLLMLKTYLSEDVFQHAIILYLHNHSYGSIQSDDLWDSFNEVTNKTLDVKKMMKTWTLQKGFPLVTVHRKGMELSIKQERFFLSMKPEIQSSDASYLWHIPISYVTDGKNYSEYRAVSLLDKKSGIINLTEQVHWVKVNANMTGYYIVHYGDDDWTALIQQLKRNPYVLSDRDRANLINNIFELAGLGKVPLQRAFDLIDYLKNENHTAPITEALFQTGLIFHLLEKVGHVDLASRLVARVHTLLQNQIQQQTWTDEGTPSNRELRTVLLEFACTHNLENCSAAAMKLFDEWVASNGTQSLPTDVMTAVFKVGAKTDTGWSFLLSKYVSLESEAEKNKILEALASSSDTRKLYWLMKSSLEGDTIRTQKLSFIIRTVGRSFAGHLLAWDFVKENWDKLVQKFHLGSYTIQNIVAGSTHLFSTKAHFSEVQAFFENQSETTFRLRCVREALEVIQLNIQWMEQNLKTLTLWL

[8] = tested on: rat kidney; assay: Renal cortical blood flow (laser doppler) and arterial pressure after infusion into the renal artery; format: in vivo
[9] = target: T1, AT4 receptor; assay: 125I-AIV binding and competition, solubilized bovine adrenal cortical receptor
[10] = arterial and venous blood in man; cited from earlier work
[11] = read-out: 125I-AIV Binding (Ki), competition

Compound: Asp1 Arg2 Val3 Tyr4 Ile5 His6 Pro7 Phe8His9 Leu10 (DRVYIHPFHL) [AI]
- hydrolysis in binding buffer [1]: less than 10%
- metabolized during transit through the kidney [2]: 72-76%

Compound: SRVYIHPI [Sar1, Ile8 -AII]
- Ki [3, 11]: > 1000 nM
- Hill Coeff. [4]: 1.00 ± .03
- Bmax ([4]; listed as 125I Sar1, Ile8 -Ang II): 1.03 ± .26 pmol/mg prot.
- Bmax ([4]; listed as 125I-Sar1,Ile8 -AII): 1.03±0.26 pmol/mg prot.
- Kd ([4]; read-out: Kd (calculated from kinetic constants)): 0.225 nM
- Ki [5]: > 1000 nM
- increase in Ki (decrease in affinity) compared with AIV [6]: 200 fold
- Ki ([6]; competition of 0.5 nM 125I-AIV): 261 ± 89.1 nM
- Ki [7]: > 1000 nM
- average change in AIV-induced blood flow with preinfusion ([8]; 1 nmol/min, 10 min preinfusion): < 3%
- effect of preinfusion on blood flow response to another ligand ([8]; rat, in vivo): completely blocked the AII effect while having no effect on AIV

Compound: CGP 42112A
- Ki [3, 11]: > 100000 nM
- Ki ([4]; competition): > 100000 nM
- Ki [5]: > 1000 nM
- Ki ([6]; unit inferred): > 100000 nM
- Ki [7]: > 100000 nM

Compound: CC[C@H](C)[C@H](NC(=O)[C@H](Cc1ccc(O)cc1)NC(=O)[C@@H](NC(=O)[C@@H](N)CCCNC(=N)N)C(C)C)C(=O)N[C@@H](Cc1c[nH]cn1)C(=O)N1CCC[C@H]1C(=O)N[C@@H](Cc1ccccc1)C(=O)O [AIII, Arg1 Val2 Tyr3 Ile4 His5 Pro6 Phe7, reference compound]
- fold less active than AIV ligand ([3]; density-gradient-purified heat-treated membranes): about 52 fold
- Ki ([3]; density-gradient-purified heat-treated membranes, read-out: apparent affinity (Ki)): 29.3 nM
- Ki [3, 11]: > 14.5 nM
- fold less active than AIV ligand [9]: approximately 29 fold
- times less effective than AIV in competing binding [9]: approximately 100 times
- Ki ([6]; competition of 0.5 nM 125I-AIV): 23.3 ± 3.4 nM
- hydrolysis in binding buffer [1]: less than 10%
- half-lives [10]: 2.0 min
- metabolized during transit through the kidney [2]: 89%
